Test results: patent US11787780B2 (CORCEPT THERAPEUTICS INCORPORATED, priority 2020, dated 2023)

Key:
[1] = tested on: induction of TAT by dexamethasone in HepG2 cells; assay: Hep G2 TAT assay (inhibition of dexamethasone-induced TAT); type: cell-based, human; settings: challenge of 100 nM dexamethasone, IC50 converted to Ki by Cheng and Prusoff equation
[2] = target: glucocorticoid receptor (GR) recombinant ligand binding domain (LBD) (Homo sapiens (Human), UniProt P04150); assay: GR binding fluorescence polarisation (FP) assay; settings: displacement of fluorescently tagged ligand
Sequence of glucocorticoid receptor (GR) recombinant ligand binding domain (LBD) (P04150 524-758): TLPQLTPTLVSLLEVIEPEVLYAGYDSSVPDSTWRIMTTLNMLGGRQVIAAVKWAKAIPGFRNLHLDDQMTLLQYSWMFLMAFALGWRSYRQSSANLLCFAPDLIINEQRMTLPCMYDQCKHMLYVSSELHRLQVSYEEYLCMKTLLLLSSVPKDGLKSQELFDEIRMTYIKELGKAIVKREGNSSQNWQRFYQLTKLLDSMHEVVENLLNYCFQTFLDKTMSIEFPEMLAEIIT
Experimental: Binding of test compounds to the glucocorticoid receptor (GR) is determined using a fluorescence polarisation (FP) assay utilising a recombinant ligand binding domain (LBD) of GR. The test compounds are assessed by their ability to displace a fluorescently tagged ligand and detection of the resulting decrease in fluorescence polarisation.

| IC50 [2] | Compound | Ki [1] |
| --- | --- | --- |
| 0.012 µM | Cc1cc2c(cnn2-c2ccc(=O)n(C)c2)cc1C1(Cc2ccccc2)CCN(S(=O)(=O)c2cccc(F)c2)C1 (stereo not drawn) [Example 302, 5-(5-(3-benzyl-1-((3-fluorophenyl)sulfonyl)pyrrolidin-3-yl)-6-methyl-1H-indazol-1-yl)-1-methylpyridin-2(1H)-one] | 0.027 µM |
| 0.018 µM | CCCn1cc(S(=O)(=O)N2CCC(Cc3ccccc3)(c3cc4cnn(-c5ccc(F)cc5)c4cc3OC)C2)cn1 (stereo not drawn) [Example 162] | 0.016 µM |
| 0.06 µM | Cc1cc2c(cnn2-c2ccc(F)cc2)cc1C1(Cc2cccc(C(F)(F)F)c2)CCN(S(=O)(=O)c2cnn(C)c2)C1 (stereo not drawn) [Example 176] | 0.033 µM |
| 0.0048 µM | Cc1cc2c(cnn2-c2ccc(=O)n(C)c2)cc1C1(Cc2ccccc2)CCN(S(=O)(=O)c2ccccc2F)C1 (stereo not drawn) [Example 301, 5-(5-(3-benzyl-1-((2-fluorophenyl)sulfonyl)pyrrolidin-3-yl)-6-methyl-1H-indazol-1-yl)-1-methylpyridin-2(1H)-one] | 0.025 µM |
| 0.014 µM | CC(=O)N1CCC(Cc2cccc(C(F)(F)F)c2)(c2cc3cnn(-c4ccc(F)cc4)c3cc2C)C1 (stereo not drawn) [Example 192, 1-(3-(1-(4-fluorophenyl)-6-methyl-1H-indazol-5-yl)-3-(3-(trifluoromethyl)benzyl)pyrrolidin-1-yl)ethan-1-one] | 0.072 µM |
| 0.016 µM | COc1cc2c(cnn2-c2ccc(=O)n(C)c2)cc1C1(Cc2ccccc2)CCN(S(=O)(=O)c2cnn(C)n2)C1 (stereo not drawn) [Example 265, 5-(5-(3-benzyl-1-((2-methyl-2H-1,2,3-triazol-4-yl)sulfonyl)pyrrolidin-3-yl)-6-methoxy-1H-indazol-1-yl)-1-methylpyridin-2(1H)-one] | 0.12 µM |
| 0.012 µM | Cc1cc2c(cnn2-c2ccc(=O)n(C)c2)cc1C1(Cc2ccccc2)CCN(S(=O)(=O)c2cncc(Cl)c2)C1 (stereo not drawn) [Example 312, 5-(5-(3-benzyl-1-((5-chloropyridin-3-yl)sulfonyl)pyrrolidin-3-yl)-6-methyl-1H-indazol-1-yl)-1-methylpyridin-2(1H)-one] | 0.041 µM |
| 0.07 µM | Cc1cc2c(cnn2-c2ccc(F)cc2)cc1C1CCN(C(=O)NC(C)C)CC1 [Example 32, 4-(1-(4-fluorophenyl)-6-methyl-1H-indazol-5-yl)-N-isopropylpiperidine-1-carboxamide] | 0.4 µM |
| 0.067 µM | Cc1cc2c(cnn2-c2ccc(F)cc2)cc1C1(Cc2ccc(C(F)F)nc2)CCN(S(=O)(=O)c2cnn(C)c2)C1 (stereo not drawn) [Example 171] | 0.171 µM |
| 0.045 µM | Cc1cc2c(cnn2-c2ccc(F)cc2)cc1N1CCC2CN(S(C)(=O)=O)CC21 (stereo not drawn) [Example 90] | 0.343 µM |
| 0.123 µM | Cc1cc2c(cnn2-c2ccc(F)cc2)cc1C1(Cc2ccc(C(F)(F)F)nc2)CCN(S(=O)(=O)c2cnn(C)c2)C1 (stereo not drawn) [Example 170] | 0.104 µM |
| 0.0047 µM | Cc1cc2c(cnn2-c2ccc(=O)n(C)c2)cc1C1(Cc2ccccc2)CCN(S(=O)(=O)c2cnn(C)n2)C1 (stereo not drawn) [Example 266, 5-(5-(3-benzyl-1-((2-methyl-2H-1,2,3-triazol-4-yl)sulfonyl)pyrrolidin-3-yl)-6-methyl-1H-indazol-1-yl)-1-methylpyridin-2(1H)-one] | 0.04 µM |
| 0.008 µM | CCCn1cc(S(=O)(=O)N2CCN(c3cc4cnn(-c5ccc(F)cc5)c4cc3C)CC23CC3)cn1 [Example 60] | 0.039 µM |
| 0.014 µM | Cc1cc2c(cnn2-c2ccc(=O)n(C)c2)cc1C1(Cc2ccccc2)CCN(S(=O)(=O)c2ccc(C#N)cc2)C1 (stereo not drawn) [Example 308, 4-((3-benzyl-3-(6-methyl-1-(1-methyl-6-oxo-1,6-dihydropyridin-3-yl)-1H-indazol-5-yl)pyrrolidin-1-yl)sulfonyl)benzonitrile] | 0.062 µM |
| 0.11 µM | CCc1cc(-n2ncc3cc(C4(Cc5ccccc5)CCN(S(=O)(=O)c5cnn(C)n5)C4)c(C)cc32)cn(C)c1=O (stereo not drawn) [Example 263, 5-(5-(3-benzyl-1-((2-methyl-2H-1,2,3-triazol-4-yl)sulfonyl)pyrrolidin-3-yl)-6-methyl-1H-indazol-1-yl)-3-ethyl-1-methylpyridin-2(1H)-one] | 0.1 µM |
| 0.109 µM | CC(=O)N1CCC(Cc2ccc(C(F)(F)F)cc2)(c2cc3cnn(-c4ccc(F)cc4)c3cc2C)C1 (stereo not drawn) [Example 194, 1-(3-(1-(4-fluorophenyl)-6-methyl-1H-indazol-5-yl)-3-(4-(trifluoromethyl)benzyl)pyrrolidin-1-yl)ethan-1-one] | 0.102 µM |
| 0.052 µM | CCCn1cc(S(=O)(=O)N2CC[C@@](Cc3ccccc3)(c3cc4cnn(-c5ccc(F)cc5)c4cc3C)C2)cn1 [Example 17, (S)-5-(3-benzyl-1-((1-propyl-1H-pyrazol-4-yl)sulfonyl)pyrrolidin-3-yl)-1-(4-fluorophenyl)-6-methyl-1H-indazole] | 0.023 µM |
| 0.0044 µM | Cc1cc2c(cnn2-c2ccc(=O)n(C)c2)cc1C1(Cc2ccccc2)CCN(S(=O)(=O)c2cccc(C(F)(F)F)n2)C1 (stereo not drawn) [Example 303, 5-(5-(3-benzyl-1-((6-(trifluoromethyl)pyridin-2-yl)sulfonyl)pyrrolidin-3-yl)-6-methyl-1H-indazol-1-yl)-1-methylpyridin-2(1H)-one] | 0.024 µM |
| 0.93 µM | C[C@@H]1CN(S(=O)(=O)c2cnn(C)c2)CCN1c1ccc2c(cnn2-c2ccc(F)cc2)c1 [Example 1, (R)-1-(4-fluorophenyl)-5-(2-methyl-4-((1-methyl-1H-pyrazol-4-yl)sulfonyl)piperazin-1-yl)-1H-indazole] | 0.594 µM |
| 0.026 µM | Cc1cc2c(cnn2-c2cnn(C3COC3)c2)cc1C1(Cc2ccccc2)CCN(S(=O)(=O)c2cnn(C)n2)C1 (stereo not drawn) [Example 264, 5-(3-benzyl-1-((2-methyl-2H-1,2,3-triazol-4-yl)sulfonyl)pyrrolidin-3-yl)-6-methyl-1-(1-(oxetan-3-yl)-1H-pyrazol-4-yl)-1H-indazole] | 0.21 µM |
| 0.033 µM | Cc1cc2c(cnn2-c2ccc(=O)n(C)c2)cc1C1(Cc2ccccc2)CCN(S(=O)(=O)c2cn(C)c(C)n2)C1 (stereo not drawn) [Example 288] | 0.11 µM |
|  | COc1ccccc1-c1noc(CCC(=O)N2CCC(Cc3ccccc3)(c3cc4cnn(-c5ccc(F)cc5)c4cc3C)C2)n1 (stereo not drawn) [Example 201, 1-(3-benzyl-3-(1-(4-fluorophenyl)-6-methyl-1H-indazol-5-yl)pyrrolidin-1-yl)-3-(3-(2-methoxyphenyl)-1,2,4-oxadiazol-5-yl)propan-1-one] | 0.048 µM |
|  | CCCn1cc(S(=O)(=O)N2CCN(c3cc(C)c4c(cnn4-c4ccc(F)cc4)c3)CC23CC3)cn1 [Example 80] | 0.536 µM |
|  | Cc1cc2c(cnn2-c2ccc(F)cc2)cc1C1(Cc2ccccc2)CCN(C(=O)c2cnn(C)c2)C1 (stereo not drawn) [Example 19, (3-benzyl-3-(1-(4-fluorophenyl)-6-methyl-1H-indazol-5-yl)pyrrolidin-1-yl)(1-methyl-1H-pyrazol-4-yl)methanone] | 0.142 µM |
|  | Cc1cc2c(cnn2-c2ccc(F)cc2)cc1C1(COc2ccccc2)CCN(S(=O)(=O)c2cnn(C)c2)C1 (stereo not drawn) [Example 344, 1-(4-fluorophenyl)-6-methyl-5-(1-((1-methyl-1H-pyrazol-4-yl)sulfonyl)-3-(phenoxymethyl)pyrrolidin-3-yl)-1H-indazole] | 0.097 µM |

| Compound | IC50 [2] | Ki [1] |
| --- | --- | --- |
| CCCn1cc(S(=O)(=O)N2C3CC2CN(c2cc4cnn(-c5ccc(F)cc5)c4cc2C)C3)cn1 [Example 73] | 0.151 µM | 0.306 µM |
